Holding throughout (assay type): physicochemical
A short description of data set [1]: Photostationary state (PSS) and lambda max under simulated sunlight (solar simulator). As to conditions: for PSS (Steady State): head of Table 3; for PSS (Steady State) / PSS (SS): absorbance at photostationary state, 2×10^−5 M solution; for λmax (nm): peak in the visible range, ring-closed (dark) state; for PSS (SS): simulated sunlight (solar simulator). The text has this: The term “photostationary state” (PSS) refers to an equilibrium state of a compound or material where the rate of the ring closing (forward) reaction is equal to the rate of the ring-opening reaction, when irradiated with light in a given region of the spectrum. In other words, the ratio of the ring-open isomer to the ring-closed isomer is at an equilibrium. PSS may be expressed with reference to a light source, or with reference to a type of light, for example, QUV, Xenon-arc lamp, Q-SUN, natural or filtered sunlight, UV, VIS, IR, NIR, full spectrum or the like, or with reference to a particular wavelength or range of wavelengths, or in the presence or absence of a filter. Some ring-open and ring-closed isomers may undergo isomerization from one to the other in response to different wavelengths of light. If a wavelength of light is used where only one of the isomers absorbs, irradiation results in complete isomerization to the other form. 254 nm, 313 nm or 365 nm light are commonly used in studies of UV-absorbing isomers, but this may not be representative of the PSS under other light conditions that include the visible spectrum such as natural or simulated sunlight (“full spectrum” light) and/or with filters that block a portion of the UV component of the light. For example, in a ring-closed (dark) state, the magnitude of the maximum absorbance in the visible range may change with the light source (FIG. 1). The wavelength at this peak in the visible range may be referred to as lambda max, or λmax. […] When full spectrum light from a solar simulator (Xenon arc lamp) is used as a light source (line B), a balance is achieved between the ring-closed (dark) state induced by the UV component, and a ring-open (faded) state induced by the visible component of the light. Inclusion of a UV blocking layer in the light path (line A) may reduce the UV component of the light, and the ring-opening reaction induced by the visible light component becomes more prominent. […] Where desired, the ratio of ring-open and ring-closed isomers at a PSS may be quantified by ^1H NMR spectroscopy, such as described in U.S. Pat. No. 7,777,055. In various embodiments, compounds with an increased absorbance at a photostationary state (PSS), or increased contrast ratio, are an improvement over other diarylethene compounds. A compound with a greater absorbance in the visible range can be used in lesser quantities in a formulation or material to achieve a desired contrast ratio, whereas a compound with a lower absorbance at a PSS may need a higher concentration to achieve a desired contrast ratio.
Photostationary State (PSS)
(§1) UV/Vis spectra were obtained using an OceanOptics™ Spectrophotometer. A 2×10^−5 M solution of compound in solvent was prepared, and photofaded using visible light until absorption in the visible region of the spectrum stabilized. The sample was then irradiated with simulated sunlight (QSUN SS-150 Solar Simulator with xenon arc lamp) until the absorption spectrum stabilized. To obtain PSS in the presence of a UV blocking film, a second sample was prepared and irradiated as described, with a UV blocking film inserted in the light path when irradiating.

The nature of data set [2]: UV/Vis absorbance at 400 nm and Yellowness Index of the ring-open isomer. The following applies: for Abs @ 400 nm, RO (Absorption of ring-open isomer at 400 nm): 2×10^−5 M solution, 1 cm pathlength cuvette.
Text: In addition to the above, chromophores should have acceptable colour for both the ring-opened and ring-closed isomers. For example, the ring-open isomer of the chromophore should have a Yellowness Index (YI) of less than about 10 and an absorbance at 400 nm, as measured for a 2×10^−5 M solution in a 1 cm pathlength cuvette. For the ring-closed isomer of the chromophore, the lambda max should be between about 475 nm and 700 nm, tunable according to desired colour and number of chromophores in the composition.
as §1

The nature of data set [3]: Solubility in Rhodiasolv IRIS solvent. The following applies: for Solubility in Rhodiasolv IRIS: Rhodiasolv IRIS (dimethyl-2-methyl glutarate), wt %. From the text:
A compound with greater solubility allows for a formulation or material with a greater concentration of coloured molecule to be incorporated into a composition. This may allow for increasing the contrast ratio for a compound with a lesser absorbance at PSS. Examples of solubilizing groups for the compound include alkoxy, ether, ester or siloxy groups. In various embodiments, compounds may be soluble in the solvent component at room temperature at about 6 wt %, 7 wt %, 8 wt %, 9 wt %, 10 wt % or greater for testing to determine whether a compound has application as an exterior glazing or optical filter. If the solubility of a compound in the solvent component is too low, then insufficient darkening may be achieved in the ring-closed configuration, depending on conditions of use for the compound.
Chromophore solutions in Rhodiasolv IRIS were prepared at 1 to 10 wt % loading. Solutions were prepared in a glovebox by charging the chromophore and Rhodiasolv IRIS to a trace-clean vial, and the solution was stirred on a hotplate at 90° C. for 2-24 hours. After cooling, the chromophore solution was injected into glass weathering cells and the fill and vent ports were sealed with a thin disc of Kalrez (FFKM Perfluorinated Elastomer) and secured with a clamp and set-screw. The weathering cells were filled and sealed inside the glove box.

Molecules are shown by their SMILES. Bounds are passed on as bounds.

Consider `COc1cc2oc(-c3ccc(C(C)(C)C)cc3)c(C3=C(c4cc(-c5ccc(C(C)(C)C)s5)sc4-c4sc(C(C)(C)C)cc4C)C(F)(F)C(F)(F)C3(F)F)c2cc1OC` [Chromophore S378, 2-(4-(tert-butyl)phenyl)-3-(2-(5,5″-di-tert-butyl-3-methyl-[2,2′:5′,2″-terthiophen]-3′-yl)-3,3,4,4,5,5-hexafluorocyclopent-1-en-1-yl)-5,6-dimethoxybenzofuran], for which, in data set [1], the “PSS (Steady State)” value is 0.351 and the “λmax (nm)” value is 593 nm. In data set [2], the “YI (Yellowness Index)” value was 4.94 and the “Abs @ 400 nm, RO (Absorption of ring-open isomer at 400 nm)” value (from here on “Abs @ 400 nm, RO”) was found to be 0.127. The “Solubility in Rhodiasolv IRIS” value in data set [3] is given as under 5%.

As for `CCOC(=O)CCCOc1cc2oc(-c3ccc(C(C)(C)C)cc3)c(C3=C(c4cc(-c5ccc(C(C)(C)C)s5)sc4-c4sc(C(C)(C)C)cc4C)C(F)(F)C(F)(F)C3(F)F)c2cc1OCCCC(=O)OCC` [Chromophore S383, diethyl 4,4′-((2-(4-(tert-butyl)phenyl)-3-(2-(5,5″-di-tert-butyl-3-methyl-[2,2′:5′,2″-terthiophen]-3′-yl)-3,3,4,4,5,5-hexafluorocyclopent-1-en-1-yl)benzofuran-5,6-diyl)bis(oxy))dibutanoate], in data set [1], the “PSS (Steady State)” value is 0.408 and the “λmax (nm)” value is recorded as 590 nm. Moreover, in data set [2], the “YI (Yellowness Index)” value was determined as 4.52 and the “Abs @ 400 nm, RO” value came to 0.144. Further, the “Solubility in Rhodiasolv IRIS” value in data set [3] is over 10%. In addition, the “Solubility (in words)” value in data set [3] (relative to the methoxy parent chromophore) was “improved solubility”.

As for `CCOC(=O)CCCOc1cc2oc(-c3ccc(C(C)(C)C)cc3)c(C3=C(c4cc(-c5sc(C(C)(C)C)cc5C)sc4-c4sc(C(C)(C)C)cc4C)C(F)(F)C(F)(F)C3(F)F)c2cc1OCCCC(=O)OCC` [Chromophore S384, diethyl 4,4′-((2-(4-(tert-butyl)phenyl)-3-(2-(5,5″-di-tert-butyl-3,3″-dimethyl-[2,2′:5′,2″-terthiophen]-3′-yl)-3,3,4,4,5,5-hexafluorocyclopent-1-en-1-yl)benzofuran-5,6-diyl)bis(oxy))dibutanoate], in data set [1], the “PSS (Steady State)” value is listed as 0.342 and the “λmax (nm)” value is 593 nm. In data set [2], the “YI (Yellowness Index)” value came to 4.13 and the “Abs @ 400 nm, RO” value was 0.107. In addition, in data set [3], the “Solubility in Rhodiasolv IRIS” value is listed as over 10%.

For the molecule `CCOC(=O)CCCOc1cc2oc(-c3ccc(C(C)(C)C)cc3)c(C3=C(c4cc(-c5cc(C(C)(C)C)cs5)sc4-c4cc(C(C)(C)C)cs4)C(F)(F)C(F)(F)C3(F)F)c2cc1OCCCC(=O)OCC` [Chromophore S386, diethyl 4,4′-((2-(4-(tert-butyl)phenyl)-3-(2-(4,4″-di-tert-butyl-[2,2′:5′,2″-terthiophen]-3′-yl)-3,3,4,4,5,5-hexafluorocyclopent-1-en-1-yl)benzofuran-5,6-diyl)bis(oxy))dibutanoate], in data set [1], the “PSS (SS)” value is reported as 0.351 and the “λmax (nm)” value is 593 nm. Further, in data set [2], the “YI (Yellowness Index)” value is 4.05 and the “Abs @ 400 nm, RO” value stood at 0.113. The “Solubility in Rhodiasolv IRIS” value in data set [3] is over 10%.

Take `CCOC(=O)CCCOc1cc2oc(-c3ccc(C(C)(C)C)cc3)c(C3=C(c4cc(-c5cc6c(s5)C(C)(C)CCC6(C)C)sc4-c4cc5c(s4)C(C)(C)CCC5(C)C)C(F)(F)C(F)(F)C3(F)F)c2cc1OCCCC(=O)OCC` [Chromophore S387, ethyl 4-[(3-{2-[2,5-bis(4,4,7,7-tetramethyl-4,5,6,7-tetrahydro-1-benzothiophen-2-yl)thiophen-3-yl]-3,3,4,4,5,5-hexafluorocyclopent-1-en-1-yl}-2-(4-tert-butylphenyl)-6-(4-ethoxy-4-oxobutoxy)-1-benzofuran-5-yl)oxy]butanoate]: in data set [1], the “PSS (SS)” value is given as 0.409 and the “λmax (nm)” value is given as 594 nm. In addition, in data set [2], the “YI (Yellowness Index)” value was determined as 8.15 and the “Abs @ 400 nm, RO” value stood at 0.146. Besides, the “Solubility in Rhodiasolv IRIS” value in data set [3] was over 10%.

Turning to `COCCCOc1cc2oc(-c3ccc(C(C)(C)C)cc3)c(C3=C(c4cc(-c5cc6c(s5)C(C)(C)CCC6(C)C)sc4-c4cc5c(s4)C(C)(C)CCC5(C)C)C(F)(F)C(F)(F)C3(F)F)c2cc1OCCCOC` [Chromophore S388, 3-(2-(2,5-bis(4,4,7,7-tetramethyl-4,5,6,7-tetrahydrobenzo[b]thiophen-2-yl)thiophen-3-yl)-3,3,4,4,5,5-hexafluorocyclopent-1-en-1-yl)-2-(4-(tert-butyl)phenyl)-5,6-bis(3-methoxypropoxy)benzofuran], in data set [1], the “PSS (SS)” value is 0.38 and the “λmax (nm)” value is 600 nm. In data set [2], the “YI (Yellowness Index)” value came to 6.3 and the “Abs @ 400 nm, RO” value was found to be 0.132. The “Solubility in Rhodiasolv IRIS” value in data set [3] is listed as over 10%.

On to `CC(C)(C)c1ccc(-c2oc3cc(OCCN4CCOC4=O)c(OCCN4CCOC4=O)cc3c2C2=C(c3cc(-c4cc5c(s4)C(C)(C)CCC5(C)C)sc3-c3cc4c(s3)C(C)(C)CCC4(C)C)C(F)(F)C(F)(F)C2(F)F)cc1` [Chromophore S390, 3,3′-(((3-(2-(2,5-bis(4,4,7,7-tetramethyl-4,5,6,7-tetrahydrobenzo[b]thiophen-2-yl)thiophen-3-yl)-3,3,4,4,5,5-hexafluorocyclopent-1-en-1-yl)-2-(4-(tert-butyl)phenyl)benzofuran-5,6-diyl)bis(oxy))bis(ethane-2,1-diyl))bis(oxazolidin-2-one)], for which, in data set [1], the “PSS (SS)” value is recorded as 0.45 and the “λmax (nm)” value was 593 nm. Also, in data set [2], the “YI (Yellowness Index)” value stood at 6.48 and the “Abs @ 400 nm, RO” value is 0.133. In addition, in data set [3], the “Solubility in Rhodiasolv IRIS” value is over 10%.

As for `CC(=O)Oc1cc2oc(-c3ccc(C(C)(C)C)cc3)c(C3=C(c4cc(-c5cc(C(C)(C)C)cs5)sc4-c4cc(C(C)(C)C)cs4)C(F)(F)C(F)(F)C3(F)F)c2cc1OC(C)=O` [Chromophore S396, 2-(4-(tert-butyl)phenyl)-3-(2-(4,4″-di-tert-butyl-[2,2′:5′,2″-terthiophen]-3′-yl)-3,3,4,4,5,5-hexafluorocyclopent-1-en-1-yl)benzofuran-5,6-diyl diacetate], in data set [1], the “PSS (SS)” value is reported as 0.278 and the “λmax (nm)” value is 578 nm. In data set [2], the “YI (Yellowness Index)” value is 2.78 and the “Abs @ 400 nm, RO” value was 0.08. The “Solubility in Rhodiasolv IRIS” value in data set [3] was over 3%.

Consider `COc1ccc2oc(-c3ccc(C(C)(C)C)cc3)c(C3=C(c4cc(-c5cc6c(s5)C(C)(C)CCC6(C)C)sc4-c4cc5c(s4)C(C)(C)CCC5(C)C)C(F)(F)C(F)(F)C3(F)F)c2c1` [Chromophore S400], for which, in data set [1], the “PSS (SS)” value was 0.306 and the “λmax (nm)” value is 592 nm. In addition, in data set [2], the “YI (Yellowness Index)” value came out at 6.67 and the “Abs @ 400 nm, RO” value is 0.125. Also, in data set [3], the “Solubility in Rhodiasolv IRIS” value is reported as over 3%.

Source of the values: US20220220100A1 (SOLUTIA CANADA INC., priority 2019, published 2022).
